What follows are molecules tested against T1, Syk (Homo sapiens, UniProt P43405) (assay: Syk HTRF assay). Settings: IC50 activity level, read-out: Activity Level.
T1 construct: purchased Carna Biosciences
Type: biochemical
Procedure: Test compounds were prepared at a concentration of 1.5 mM in DMSO followed by 3-fold dilutions in Greiner […] polypropylene plates. A 1:4 dilution of compounds by 8 μL/well transfer from the polypropylene plates to 24 μL/well Assay Buffer in Costar 3710 384 well black plates was then performed. Kinases (13 μL/well) or Assay Buffer only (background controls; 50 mM HEPES pH 7.6, 1 mM DTT, 10 mM MgCl2, 0.01% Triton X100, 0.01% BSA and 0.1 mM EDTA) were added to Costar 3710 384-well black plates for the HTRF assays (Carna Biosciences) and compound was added from the 1:4 dilution plate. Syk start mix (87.5 μM ATP, 80 nM Substrate Peptide (American Peptide Company 332722) was added and the mixture was incubated at room temperature for 1 hour. Syk Stop Solution (120 mM EDTA in dilution buffer) was then added to the Syk HTRF assay plate and incubated at room temperature on a shaker for 2 minutes. Syk Antibody Mix (4.86 μg/mL DyLight 647 Streptavidin (Pierce 21824); 1 μg/mL Lance Eu-Anti-Phosphotyrosine (PerkinElmer AD0069)) was added to the Syk HTRF assay plate and the mixture was further incubated at room temperature for >4 h. Time resolved fluorescence was read in assay plates on a PerkinElmer EnVision. HTRF assays were performed using 320 nm excitation, 60 μs delay, 665 nm and 615 nm emission. Data was expressed by division of 665 nm by 615 nm emissions.

SMILES | IC50
c1ccc(Nc2nc3cccc(-c4ccc5nc(CN6CCCC6)[nH]c5c4)n3n2)cc1 [Example 428, N-phenyl-5-(2-(pyrrolidin-1-ylmethyl)-1H-benzo[d]imidazol-6-yl)-[1,2,4]triazolo[1,5-a]pyridin-2-amine] | 0.005 to 250 nM
OC(c1cccnc1)c1cccc2nc(Nc3ccccc3)nn12 (stereo not drawn) [Example 501, (2-(phenylamino)-[1,2,4]triazolo[1,5-a]pyridin-5-yl)(pyridin-3-yl)methanol] | 250 to 500 nM
Nc1nccc2ccc(-c3cccc4nc(Nc5ccccc5)nn34)cc12 [Example 489, 7-(2-(phenylamino)-[1,2,4]triazolo[1,5-a]pyridin-5-yl)isoquinolin-1-amine] | 500 to 1000 nM
COc1cc(-c2cccc3nc(Nc4ccc5c(c4)NC(=O)C5(C)C)nn23)ccn1 [Example 559, 6-(5-(2-methoxypyridin-4-yl)-[1,2,4]triazolo[1,5-a]pyridin-2-ylamino)-3,3-dimethylindolin-2-one] | 0.005 to 250 nM
CNC(=O)c1ccc(Nc2nc3cccc(-c4ccc5[nH]ncc5c4)n3n2)cc1 [Example 426, 4-(5-(1H-indazol-5-yl)-[1,2,4]triazolo[1,5-a]pyridin-2-ylamino)-N-methylbenzamide] | 0.005 to 250 nM
c1ccc(Nc2nc3cccc(-c4ccncc4)n3n2)cc1 [Example 528, N-phenyl-5-(pyridin-4-yl)-[1,2,4]triazolo[1,5-a]pyridin-2-amine] | 250 to 500 nM
CN(C)c1cc(-c2cccc3nc(Nc4ccccc4)nn23)ccn1 [Example 446, 5-(2-(dimethylamino)pyridin-4-yl)-N-phenyl-[1,2,4]triazolo[1,5-a]pyridin-2-amine] | 250 to 500 nM
OC(c1cccc2nc(Nc3ccccc3)nn12)C1CCN(Cc2ccccc2)CC1 (stereo not drawn) [Example 491, (1-benzylpiperidin-4-yl)(2-(phenylamino)-[1,2,4]triazolo[1,5-a]pyridin-5-yl)methanol] | 1000 to 10000 nM
NC(=O)c1ccc(Nc2nc3cccc(NC4CCCCC4)n3n2)cc1 [Example 560, 4-(5-(cyclohexylamino)-[1,2,4]triazolo[1,5-a]pyridin-2-ylamino)benzamide] | 500 to 1000 nM
CN(c1ccccc1)c1cccc2nc(Nc3ccccc3)nn12 [Example 472, N^5-methyl-N^2,N^5-diphenyl-[1,2,4]triazolo[1,5-a]pyridin-2,5-diamine] | 1000 to 10000 nM
COc1cc(-c2cccc3nc(Nc4ccccc4)nn23)ccn1 [Example 521] | 500 to 1000 nM
CC(C)Nc1cccc2nc(Nc3ccccc3)nn12 [Example 530, N^5-isopropyl-N^2-phenyl-[1,2,4]triazolo[1,5-a]pyrridine-2,5-diamine] | 500 to 1000 nM
c1ccc(Nc2nc3cccc(OC4CCCCC4)n3n2)cc1 [Example 510] | 1000 to 10000 nM
FC(F)(F)c1n[nH]c2cc(Nc3nc4cccc(CC5CCOCC5)n4n3)ccc12 [Example 540, 5-((tetrahydro-2H-pyran-4-yl)methyl)-N-(3-(trifluoromethyl)-1H-indazol-6-yl)-[1,2,4]triazolo[1,5-a]pyridin-2-amine] | 0.005 to 250 nM
Cc1n[nH]c2ncc(Nc3nc4cccc(NC5CCOCC5)n4n3)cc12 [Example 539, N^2-(3-methyl-1H-pyrazolo[3,4-b]pyridin-5-yl)-N^5-(tetrahydro-2H-pyran-4-yl)-[1,2,4]triazolo[1,5-a]pyridin-2,5-diamine] | 1000 to 10000 nM

Same assay, conditions: activity levels A-D, read-out: Activity Level (IC50 in the Syk HTRF assay)

SMILES | IC50
O=C1CN(Cc2cccc3nc(Nc4cnc5[nH]ccc5c4)nn23)CCN1 [Example 229, 4-((2-(1H-pyrrolo[2,3-b]pyridin-5-ylamino)-[1,2,4]triazolo[1,5-a]pyridin-5-yl)methyl)piperazin-2-one] | 0.005 to 250 nM
CNC(=O)c1cccc(Nc2nc3cccc(N[C@H]4CC[C@@H](O)CC4)n3n2)c1 [Example 316, cis-3-(5-(4-hydroxycyclohexylamino)-[1,2,4]triazolo[1,5-a]pyridin-2-ylamino)-N-methylbenzamide] | 250 to 500 nM
Cc1cc(Nc2nc3cccc(CN4CCNC(=O)C4)n3n2)ccc1F [Example 228, 4-((2-(4-fluoro-3-methylphenylamino)-[1,2,4]triazolo[1,5-a]pyridin-5-yl)methyl)piperazin-2-one] | 250 to 500 nM
OC1CCN(c2ccc(Nc3nc4cccc(N[C@H]5CC[C@@H](O)CC5)n4n3)cn2)CC1 [Example 294, cis-1-(5-(5-(4-hydroxycyclohexylamino)-[1,2,4]triazolo[1,5-a]pyridin-2-ylamino)pyridin-2-yl)piperidin-4-ol] | 0.005 to 250 nM
O[C@@H]1CCC[C@H](Nc2cccc3nc(Nc4ccc(C(F)(F)F)cc4)nn23)C1 (single isomer, unassigned; enantiomer 1) [Example 223, cis-3-(2-(4-(trifluoromethyl)phenylamino)-[1,2,4]triazolo[1,5-a]pyridin-5-ylamino)cyclohexanol (enantiomer 1)] | 1000 to 10000 nM
N#Cc1cccc(Nc2nc3cccc(N[C@H]4CC[C@@H](O)CC4)n3n2)c1 [Example 348, cis-3-(5-(4-hydroxycyclohexylamino)-[1,2,4]triazolo[1,5-a]pyridin-2-ylamino)benzonitrile] | 250 to 500 nM
OC1CCN(Cc2cccc3nc(Nc4ccc(C(F)(F)F)cc4)nn23)CC1 [Example 396, 1-((2-(4-(trifluoromethyl)phenylamino)-[1,2,4]triazolo[1,5-a]pyridin-5-yl)methyl)piperidin-4-ol] | 1000 to 10000 nM
Cc1cccc(Nc2nc3cccc(N[C@H]4CC[C@@H](O)CC4)n3n2)c1 [Example 350, cis-4-(2-(m-tolylamino)-[1,2,4]triazolo[1,5-a]pyridin-5-ylamino)cyclohexanol] | 0.005 to 250 nM
O[C@H]1CC[C@@H](CNc2cccc3nc(Nc4ccc(C(F)(F)F)cc4)nn23)CC1 [Example 382, cis-4-((2-(4-(trifluoromethyl)phenylamino)-[1,2,4]triazolo[1,5-a]pyridin-5-ylamino)methyl)cyclohexanol] | 1000 to 10000 nM
O[C@H]1CCC[C@H](Nc2cccc3nc(Nc4ccc(C(F)(F)F)cc4)nn23)C1 (single isomer, unassigned; enantiomer 2) [Example 226, trans-3-(2-(4-(trifluoromethyl)(phenylamino)-[1,2,4]triazolo[1,5-a]pyridin-5-ylamino)cyclohexanol (enantiomer 2)] | 500 to 1000 nM
NC(=O)c1cncc(Nc2nc3cccc(N[C@H]4CC[C@@H](O)CC4)n3n2)c1 [Example 369, cis-5-(5-(4-hydroxycyclohexylamino)-[1,2,4]triazolo[1,5-a]pyridin-2-ylamino)nicotinamide] | 1000 to 10000 nM
O=C1CCN(Cc2cccc3nc(Nc4ccc(C(F)(F)F)cc4)nn23)CCN1 [Example 269, 1-((2-(4-(trifluoromethyl)phenylamino)-[1,2,4]triazolo[1,5-a]pyridin-5-yl)methyl)-1,4-diazepan-5-one] | 500 to 1000 nM
CNC(=O)c1ccc(Nc2nc3cccc(N4CCCC4)n3n2)cc1 [Example 251, N-methyl-4-(5-(pyrrolidin-1-yl)-[1,2,4]triazolo[1,5-a]pyridin-2-ylamino)benzamide] | 250 to 500 nM
COc1ccc(Nc2nc3cccc(-c4ccc5nc(CO)[nH]c5c4)n3n2)cn1 [Example 280, (6-(2-(6-methoxypyridin-3-ylamino)-[1,2,4]triazolo[1,5-a]pyridin-5-yl)-1H-benzo[d]imidazol-2-yl)methanol] | 250 to 500 nM
Cc1n[nH]c2cc(Nc3nc4cccc(NCC5CCOCC5)n4n3)ccc12 [Example 220, N^2-(3-methyl-1H-indazol-6-yl)-N^5-((tetrahydro-2H-pyran-4-yl)methyl)-[1,2,4]triazolo[1,5-a]pyridin-2,5-diamine] | 250 to 500 nM

Same assay, conditions: read-out: Activity Level (Syk HTRF assay IC50)

SMILES | IC50
Cc1n[nH]c2cc(Nc3nc4cccc(CN5CC(C)(O)C5)n4n3)ccc12 [Example 169, 3-methyl-1-((2-(3-methyl-1H-indazol-6-ylamino)-[1,2,4]triazolo[1,5-a]pyridin-5-yl)methyl)azetidin-3-ol] | 250 to 500 nM
Oc1cccc(-c2cccc3nc(Nc4ccc(N5CCOCC5)cc4)nn23)c1 [compound 32, 3-(2-(4-morpholinophenylamino)-[1,2,4]triazolo[1,5-a]pyridin-5-yl)phenol] | 0.005 to 250 nM
OCc1nc2ccc(Nc3nc4cccc(N[C@H]5CC[C@@H](O)CC5)n4n3)cc2[nH]1 [Example 195, cis-4-(2-(2-(hydroxymethyl)-1H-benzo[d]imidazol-6-ylamino)-[1,2,4]triazolo[1,5-a]pyridin-5-ylamino)cyclohexanol] | 0.005 to 250 nM
N#Cc1cccc(-c2cccc3nc(Nc4ccc(C(N)=O)cc4)nn23)c1 [compound 63, 4-(5-(3-cyanophenyl)-[1,2,4]triazolo[1,5-a]pyridin-2-ylamino)benzamide] | 250 to 500 nM
CC(c1cccc2nc(Nc3ccc4c(c3)NC(=O)C4(C)C)nn12)C1CCOCC1 (stereo not drawn) [Example 159, 3,3-dimethyl-6-(5-(1-(tetrahydro-2H-pyran-4-yl)ethyl)-[1,2,4]triazolo[1,5-a]pyridin-2-ylamino)indolin-2-one] | 0.005 to 250 nM
CN1Cc2cc(Nc3nc4cccc(CC5CCOCC5)n4n3)ccc2C1=O [Example 145, 2-methyl-5-(5-((tetrahydro-2H-pyran-4-yl)methyl)-[1,2,4]triazolo[1,5-a]pyridin-2-ylamino)isoinoldin-1-one] | 500 to 1000 nM

— patent US8299056B2 (Signal Pharmaceuticals, LLC, priority 2008, dated 2012)
